This is an account of results in patent publication US20210330575A1 (DONG KOOK PHARM. CO., LTD, priority 2018, published 2021).

The experiment concerns nitric oxide (NO) production in LPS-treated RAW264.7 cells. Briefly: Anti-inflammation activity: NO production by Griess reagent. Type of experiment: cell-based, mouse. Particulars: LPS-induced RAW264.7, 48 hours, FIG. 2. On the procedure: RAW264.7 cells which have been induced to have an inflammation response by LPS in the same manner as above were added to a 96-well plate. […] Then, by using the Griess reagent, the production amount of NO was measured.
On the technique in general: The Griess reaction detects nitrite, a stable product of nitric oxide.

Take `COc1ccc2c(c1)c(CC(=O)O)c(C)n2C(=O)c1ccc(Cl)cc1` [indomethacin]: the “NO production (result in words)” value was “decreased”.
